Patent US20210255193A1, “LYSINE REACTIVE PROBES AND USES THEREOF” (The Scripps Research Institute, priority 2017, published 2021)

Tests used:
Assay in all cases: competitive isoTOP-ABPP
Type in all cases: binding
[1] = target: T1, ENOPH1 Enolase-phosphatase E1 (Homo sapiens, UniProt Q9UHY7); details: for isoTOP-ABPP ratio (R) at liganded lysine Q9UHY7_K111: 50 uM, in vitro, sol, 231
T1 construct: endogenous in cells; host or cells: MDA-MB-231 (soluble fraction of lysate)
Procedure, shortened: (§1)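 Here, isoTOP-ABPP measures loss of STP-alkyne labeling at individual lysines after fragment exposure in lysate. Activated esters are dosed at 50 μM, guanidinylating agents at 100 μM; the probe follows at 0.1 mM for 1 h. R ≥4 marks a liganded lysine.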

[2] = target: T2, FAH Fumarylacetoacetase (Homo sapiens, UniProt P16930); details: for isoTOP-ABPP ratio (R) at liganded lysine P16930_K241: 50 uM, in vitro, sol, 231
T2 construct: isoTOP-ABPP experiments performed in cell lysates (in vitro); endogenous in cells; host or cells: soluble proteome of human cancer cell lines (MDA-MB-231; Ramos and Jurkat also prepared)
T2 sequence (P16930 1-419): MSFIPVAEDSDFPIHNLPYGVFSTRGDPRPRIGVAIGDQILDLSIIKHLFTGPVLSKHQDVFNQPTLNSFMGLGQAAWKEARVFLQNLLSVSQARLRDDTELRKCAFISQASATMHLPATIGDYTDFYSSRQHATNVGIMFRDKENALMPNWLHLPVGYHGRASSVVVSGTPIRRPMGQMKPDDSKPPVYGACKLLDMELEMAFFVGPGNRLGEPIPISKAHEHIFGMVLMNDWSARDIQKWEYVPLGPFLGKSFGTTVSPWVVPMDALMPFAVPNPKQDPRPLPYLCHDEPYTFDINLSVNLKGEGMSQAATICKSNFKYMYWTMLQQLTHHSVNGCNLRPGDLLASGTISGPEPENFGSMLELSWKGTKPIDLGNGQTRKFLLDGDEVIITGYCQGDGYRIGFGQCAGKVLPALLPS
Procedure, shortened: as §1

[3] = target: T3, GLOD4 Glyoxalase domain-containing protein 4 (Homo sapiens, UniProt Q9HC38); details: for isoTOP-ABPP ratio (R) at liganded lysine Q9HC38_K305: 50 uM, in vitro, sol, 231
T3 construct: endogenous in cells; host or cells: MDA-MB-231 (soluble fraction of lysate)
T3 sequence (Q9HC38 1-313): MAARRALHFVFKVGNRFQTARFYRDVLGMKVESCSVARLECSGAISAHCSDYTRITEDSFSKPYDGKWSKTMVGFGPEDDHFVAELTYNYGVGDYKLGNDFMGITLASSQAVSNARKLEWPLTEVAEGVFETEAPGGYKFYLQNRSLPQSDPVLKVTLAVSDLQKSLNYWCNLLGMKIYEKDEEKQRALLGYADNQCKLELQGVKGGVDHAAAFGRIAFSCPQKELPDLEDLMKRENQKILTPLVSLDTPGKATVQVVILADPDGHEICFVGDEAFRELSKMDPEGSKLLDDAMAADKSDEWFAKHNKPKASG
Procedure, shortened: as §1

[4] = target: T4, POLR2L DNA-directed RNA polymerases I, II, and III subunit (Homo sapiens, UniProt P62875); details: for isoTOP-ABPP ratio (R) at liganded lysine P62875_K67: 50 uM, in vitro, sol, 231
T4 construct: isoTOP-ABPP experiments performed in cell lysates (in vitro); endogenous in cells; host or cells: soluble proteome of human cancer cell lines (MDA-MB-231, Ramos, Jurkat)
Procedure, shortened: as §1

[5] = target: T5, TRMT10C Mitochondrial ribonuclease P protein 1 (Homo sapiens, UniProt Q7L0Y3); details: for isoTOP-ABPP ratio (R) at liganded lysine Q7L0Y3_K325: 50 uM, in vitro, sol, 231
T5 construct: isoTOP-ABPP experiments performed in cell lysates (in vitro); endogenous in cells; host or cells: soluble proteome of human cancer cell lines (MDA-MB-231; Ramos and Jurkat also prepared)
T5 sequence (Q7L0Y3 40-403): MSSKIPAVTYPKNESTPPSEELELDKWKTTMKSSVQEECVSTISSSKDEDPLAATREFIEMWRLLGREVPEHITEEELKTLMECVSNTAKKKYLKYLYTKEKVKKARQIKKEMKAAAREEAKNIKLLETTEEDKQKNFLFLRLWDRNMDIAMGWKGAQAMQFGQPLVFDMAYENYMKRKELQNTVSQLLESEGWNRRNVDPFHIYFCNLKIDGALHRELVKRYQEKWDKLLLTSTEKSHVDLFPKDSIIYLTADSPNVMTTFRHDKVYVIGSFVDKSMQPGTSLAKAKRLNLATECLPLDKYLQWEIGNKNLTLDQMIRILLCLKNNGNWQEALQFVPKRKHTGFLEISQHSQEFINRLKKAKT
Procedure, shortened: as §1

T1 sequence (Q9UHY7 whole entry): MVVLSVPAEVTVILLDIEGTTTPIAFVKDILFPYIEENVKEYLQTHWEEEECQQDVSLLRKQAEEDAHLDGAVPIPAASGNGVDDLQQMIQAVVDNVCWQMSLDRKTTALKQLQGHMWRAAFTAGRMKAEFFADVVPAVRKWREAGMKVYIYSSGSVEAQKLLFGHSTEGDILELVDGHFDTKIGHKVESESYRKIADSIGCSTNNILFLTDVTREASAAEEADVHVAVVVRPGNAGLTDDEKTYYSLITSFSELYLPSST

`O=C(Oc1ccc([N+](=O)[O-])cc1[N+](=O)[O-])c1ccc2ccccc2n1` [fragment 35, 2,4-Dinitrophenyl quinoline-2-carboxylate] was tested, and the “isoTOP-ABPP ratio (R) at liganded lysine Q9UHY7_K111” value [1] was 1.0, the “isoTOP-ABPP ratio (R) at liganded lysine P16930_K241” value [2] was 3.4 and the “isoTOP-ABPP ratio (R) at liganded lysine Q9HC38_K305” value [3] was 0.4. For the same compound, the “isoTOP-ABPP ratio (R) at liganded lysine P62875_K67” value [4] was 0.9 and the “isoTOP-ABPP ratio (R) at liganded lysine Q7L0Y3_K325” value [5] was 1.0.
For `O=C(Oc1ccc([N+](=O)[O-])cc1[N+](=O)[O-])c1ccc(-c2ccccc2)cc1` [fragment 37, 2,4-Dinitrophenyl [1,1′-biphenyl]-4-carboxylate], the “isoTOP-ABPP ratio (R) at liganded lysine Q9UHY7_K111” value [1] was 0.9, the “isoTOP-ABPP ratio (R) at liganded lysine P16930_K241” value [2] was 1.0 and the “isoTOP-ABPP ratio (R) at liganded lysine Q9HC38_K305” value [3] was 0.6. The “isoTOP-ABPP ratio (R) at liganded lysine P62875_K67” value [4] was 0.9 and the “isoTOP-ABPP ratio (R) at liganded lysine Q7L0Y3_K325” value [5] was 1.0.
`O=C(Oc1ccc([N+](=O)[O-])cc1[N+](=O)[O-])c1ccc(Oc2ccccc2)cc1` [fragment 39, 2,4-Dinitrophenyl 4-phenoxybenzoate] was tested, and the “isoTOP-ABPP ratio (R) at liganded lysine Q9UHY7_K111” value [1] was 0.8, the “isoTOP-ABPP ratio (R) at liganded lysine P16930_K241” value [2] was 1.2 and the “isoTOP-ABPP ratio (R) at liganded lysine Q9HC38_K305” value [3] was 0.8. For the same compound, the “isoTOP-ABPP ratio (R) at liganded lysine P62875_K67” value [4] was 0.9 and the “isoTOP-ABPP ratio (R) at liganded lysine Q7L0Y3_K325” value [5] was 0.9.
With `O=C(Oc1ccc([N+](=O)[O-])cc1[N+](=O)[O-])c1ccccc1Nc1cccc(C(F)(F)F)c1` [fragment 40, 2,4-Dinitrophenyl 2-((3-(trifluoromethyl)phenyl)amino)benzoate] the “isoTOP-ABPP ratio (R) at liganded lysine Q9UHY7_K111” value [1] was 0.7, the “isoTOP-ABPP ratio (R) at liganded lysine P16930_K241” value [2] was 1.4 and the “isoTOP-ABPP ratio (R) at liganded lysine Q9HC38_K305” value [3] was 0.8. For the same compound, the “isoTOP-ABPP ratio (R) at liganded lysine P62875_K67” value [4] was 1.0 and the “isoTOP-ABPP ratio (R) at liganded lysine Q7L0Y3_K325” value [5] was 0.9.
For `CC(C)(C)OC(=O)NCCCC(=O)Oc1ccc([N+](=O)[O-])cc1[N+](=O)[O-]` [fragment 41, 2,4-Dinitrophenyl 4-((tert-butoxycarbonyl)amino)butanoate], the “isoTOP-ABPP ratio (R) at liganded lysine Q9UHY7_K111” value [1] was 1.1, the “isoTOP-ABPP ratio (R) at liganded lysine P16930_K241” value [2] was 1.4 and the “isoTOP-ABPP ratio (R) at liganded lysine Q9HC38_K305” value [3] was 20.0. The “isoTOP-ABPP ratio (R) at liganded lysine P62875_K67” value [4] was 2.6 and the “isoTOP-ABPP ratio (R) at liganded lysine Q7L0Y3_K325” value [5] was 0.9.
For `N#Cc1ccc(C(=O)Oc2ccc([N+](=O)[O-])cc2[N+](=O)[O-])cc1` [fragment 44, 2,4-Dinitrophenyl 4-cyanobenzoate], the “isoTOP-ABPP ratio, lysine Q9UHY7_K111” value ([1]; 50 uM_231_sol_in vitro) was 0.9, the “isoTOP-ABPP ratio, lysine P16930_K241” value ([2]; 50 uM_231_sol_in vitro) was 2.5 and the “isoTOP-ABPP ratio, lysine Q9HC38_K305” value ([3]; 50 uM_231_sol_in vitro) was 0.5. For the same compound, the “isoTOP-ABPP ratio, lysine P62875_K67” value ([4]; 50 uM_231_sol_in vitro) was 1.0 and the “isoTOP-ABPP ratio, lysine Q7L0Y3_K325” value ([5]; 50 uM_231_sol_in vitro) was 1.3.
With `O=C(CCc1ccc2c(c1)OCO2)Oc1ccc([N+](=O)[O-])cc1[N+](=O)[O-]` [fragment 45, 2,4-Dinitrophenyl 3-(benzo[d][1,3]dioxol-5-yl)propanoate] the “isoTOP-ABPP ratio, lysine Q9UHY7_K111” value ([1]; 50 uM_231_sol_in vitro) was 1.1, the “isoTOP-ABPP ratio, lysine P16930_K241” value ([2]; 50 uM_231_sol_in vitro) was 1.3 and the “isoTOP-ABPP ratio, lysine Q9HC38_K305” value ([3]; 50 uM_231_sol_in vitro) was 0.7. The “isoTOP-ABPP ratio, lysine P62875_K67” value ([4]; 50 uM_231_sol_in vitro) was 2.8 and the “isoTOP-ABPP ratio, lysine Q7L0Y3_K325” value ([5]; 50 uM_231_sol_in vitro) was 1.0.
In the case of `CC(C)(C)OC(=O)N=C(NC(=O)OC(C)(C)C)n1cccn1` [fragment 50, reference compound], the “isoTOP-ABPP ratio, lysine Q9UHY7_K111” value ([1]; 100 uM_231_sol_in vitro) is reported as 15.1, the “isoTOP-ABPP ratio, lysine P16930_K241” value ([2]; 100 uM_231_sol_in vitro) is reported as 1.5 and the “isoTOP-ABPP ratio, lysine Q9HC38_K305” value ([3]; 100 uM_231_sol_in vitro) is reported as 1.1. The “isoTOP-ABPP ratio, lysine P62875_K67” value ([4]; 100 uM_231_sol_in vitro) was 1.0 and the “isoTOP-ABPP ratio, lysine Q7L0Y3_K325” value ([5]; 100 uM_231_sol_in vitro) was 6.2.
